Source: the supplement of paper PMC10307832

Tests used:
Experiment in all cases: relative viability (nuclei count vs DMSO), 5 days (fraction); higher = more cells survive
CAL-12T = tested on: CAL-12T
Outline: (§1)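 Nuclei were stained with Hoechst during a one-step fixation (final 0.05% Triton X-100, 1% formaldehyde, 1 ug/ml Hoechst) carried out 5 days after dosing, then counted on 4× images. The cells, lung cancer lines in 1536-well plates, had been dosed by pin tool the day after seeding with one drug alone or a fixed anchor-drug dose plus five library-drug doses (not always all listed) in √10 steps. Relative viability is the nuclei count in treated wells divided by that in vehicle wells, and each value is the median of duplicate plates.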

NCI-H1651 = tested on: NCI-H1651
Outline: as §1

NCI-H1563 = tested on: NCI-H1563
Outline: as §1

H3255 = tested on: H3255
Outline: as §1

NCI-H1437 = tested on: NCI-H1437
Outline: as §1

NCI-H1650 = tested on: NCI-H1650
Outline: as §1

NCI-H2228 = tested on: NCI-H2228
Outline: as §1

NCI-H661 = tested on: NCI-H661
Outline: as §1

ABC-1 = tested on: ABC-1
Outline: as §1

NCI-H322M = tested on: NCI-H322M
Outline: as §1

NCI-H520 = tested on: NCI-H520
Outline: as §1

SK-MES-1 = tested on: SK-MES-1
Outline: as §1

PC-3 [JPC-3] = tested on: PC-3 [JPC-3]
Outline: as §1

NCI-H2405 = tested on: NCI-H2405
Outline: as §1

COR-L23 = tested on: COR-L23
Outline: as §1

EKVX = tested on: EKVX
Outline: as §1

PC-14 = tested on: PC-14
Outline: as §1

NCI-H1355 = tested on: NCI-H1355
Outline: as §1

LK-2 = tested on: LK-2
Outline: as §1

HCC-15 = tested on: HCC-15
Outline: as §1

NCI-H1734 = tested on: NCI-H1734
Outline: as §1

RERF-LC-KJ = tested on: RERF-LC-KJ
Outline: as §1

SW 1573 = tested on: SW 1573
Outline: as §1

HCC-827 = tested on: HCC-827
Outline: as §1

CC(C)Oc1cc(Nc2nc(N[C@@H](C)c3ccc(F)cn3)ncc2Cl)n[nH]1 [AZ23] + COc1cc2c(Oc3ccc(NC(=O)C4(C(=O)Nc5ccc(F)cc5)CC4)cc3F)ccnc2cc1OCCCN1CCOCC1 [Foretinib] (partner 0.25 µM)
relative viability (CAL-12T; first compound 0.03162 µM): 1.14 | relative viability (CAL-12T; first compound 0.3162 µM): 0.884 | relative viability (NCI-H1651; first compound 0.03162 µM): 0.828 | relative viability (NCI-H1651; first compound 0.3162 µM): 0.844 | relative viability (NCI-H1563; first compound 0.01 µM): 0.922 | relative viability (NCI-H1563; first compound 0.03162 µM): 1.01 | relative viability (NCI-H1563; first compound 0.3162 µM): 0.993 | relative viability (H3255; first compound 0.01 µM): 0.881 | relative viability (H3255; first compound 0.03162 µM): 0.764 | relative viability (H3255; first compound 0.3162 µM): 0.915 | relative viability (NCI-H1437; first compound 0.01 µM): 1.37 | relative viability (NCI-H1437; first compound 0.03162 µM): 1.35 | relative viability (NCI-H1437; first compound 0.3162 µM): 1.4 | relative viability (NCI-H1650; first compound 0.03162 µM): 1.51 | relative viability (NCI-H1650; first compound 0.3162 µM): 1.23 | relative viability (NCI-H2228; first compound 0.01 µM): 1.06 | relative viability (NCI-H2228; first compound 0.03162 µM): 1.26 | relative viability (NCI-H2228; first compound 0.3162 µM): 0.875 | relative viability (NCI-H661; first compound 0.01 µM): 1.15 | relative viability (NCI-H661; first compound 0.03162 µM): 1.06 | relative viability (NCI-H661; first compound 0.3162 µM): 1 | relative viability (ABC-1; first compound 0.01 µM): 1.03 | relative viability (ABC-1; first compound 0.03162 µM): 1.04 | relative viability (ABC-1; first compound 0.3162 µM): 1.02 | relative viability (NCI-H322M; first compound 0.03162 µM): 0.96 | relative viability (NCI-H322M; first compound 0.3162 µM): 1.04 | relative viability (NCI-H520; first compound 0.01 µM): 0.813 | relative viability (NCI-H520; first compound 0.03162 µM): 0.966 | relative viability (NCI-H520; first compound 0.3162 µM): 0.677 | relative viability (SK-MES-1; first compound 0.01 µM): 0.761 | relative viability (SK-MES-1; first compound 0.03162 µM): 1.05 | relative viability (SK-MES-1; first compound 0.3162 µM): 0.977 | relative viability (PC-3 [JPC-3]; first compound 0.01 µM): 1.23 | relative viability (PC-3 [JPC-3]; first compound 0.03162 µM): 1.14 | relative viability (PC-3 [JPC-3]; first compound 0.3162 µM): 0.996 | relative viability (NCI-H2405; first compound 0.01 µM): 1.04 | relative viability (NCI-H2405; first compound 0.03162 µM): 1.05 | relative viability (NCI-H2405; first compound 0.3162 µM): 1.04 | relative viability (COR-L23; first compound 0.01 µM): 1.09 | relative viability (COR-L23; first compound 0.03162 µM): 1.02 | relative viability (COR-L23; first compound 0.3162 µM): 1.11 | relative viability (EKVX; first compound 0.01 µM): 0.782 | relative viability (EKVX; first compound 0.03162 µM): 0.988 | relative viability (EKVX; first compound 0.3162 µM): 0.565 | relative viability (PC-14; first compound 0.01 µM): 1.1 | relative viability (PC-14; first compound 0.03162 µM): 1 | relative viability (PC-14; first compound 0.3162 µM): 1.13 | relative viability (NCI-H1355; first compound 0.01 µM): 1.21 | relative viability (NCI-H1355; first compound 0.03162 µM): 1.07 | relative viability (NCI-H1355; first compound 0.3162 µM): 1.01 | relative viability (LK-2; first compound 0.01 µM): 1.15 | relative viability (LK-2; first compound 0.03162 µM): 1.38 | relative viability (LK-2; first compound 0.3162 µM): 0.706 | relative viability (HCC-15; first compound 0.01 µM): 1.16 | relative viability (HCC-15; first compound 0.03162 µM): 1.09 | relative viability (HCC-15; first compound 0.3162 µM): 1.05 | relative viability (NCI-H1734; first compound 0.01 µM): 0.803 | relative viability (NCI-H1734; first compound 0.03162 µM): 0.872 | relative viability (NCI-H1734; first compound 0.3162 µM): 0.796 | relative viability (RERF-LC-KJ; first compound 0.01 µM): 1.09 | relative viability (RERF-LC-KJ; first compound 0.03162 µM): 0.877 | relative viability (RERF-LC-KJ; first compound 0.3162 µM): 0.852 | relative viability (SW 1573; first compound 0.01 µM): 1.28 | relative viability (SW 1573; first compound 0.03162 µM): 1.1 | relative viability (SW 1573; first compound 0.3162 µM): 0.562 | relative viability (HCC-827; first compound 0.01 µM): 1.05 | relative viability (HCC-827; first compound 0.03162 µM): 1.09 | relative viability (HCC-827; first compound 0.3162 µM): 1.11

CC(C)Oc1cc(Nc2nc(N[C@@H](C)c3ccc(F)cn3)ncc2Cl)n[nH]1 [AZ23] + CCNC(=O)c1noc(-c2cc(C(C)C)c(O)cc2O)c1-c1ccc(CN2CCOCC2)cc1 [Luminespib] (partner 0.01 µM)
relative viability (CAL-12T; first compound 0.03162 µM): 0.364 | relative viability (CAL-12T; first compound 0.3162 µM): 0.568 | relative viability (NCI-H1651; first compound 0.03162 µM): 0.753 | relative viability (NCI-H1651; first compound 0.3162 µM): 0.672 | relative viability (NCI-H1563; first compound 0.01 µM): 0.544 | relative viability (NCI-H1563; first compound 0.03162 µM): 0.571 | relative viability (NCI-H1563; first compound 0.3162 µM): 0.596 | relative viability (H3255; first compound 0.01 µM): 0.574 | relative viability (H3255; first compound 0.03162 µM): 0.888 | relative viability (H3255; first compound 0.3162 µM): 0.854 | relative viability (NCI-H1437; first compound 0.01 µM): 1.29 | relative viability (NCI-H1437; first compound 0.03162 µM): 1.25 | relative viability (NCI-H1437; first compound 0.3162 µM): 1.2 | relative viability (NCI-H1650; first compound 0.03162 µM): 0.202 | relative viability (NCI-H1650; first compound 0.3162 µM): 0.195 | relative viability (NCI-H2228; first compound 0.01 µM): 0.179 | relative viability (NCI-H2228; first compound 0.03162 µM): 0.141 | relative viability (NCI-H2228; first compound 0.3162 µM): 0.0999 | relative viability (NCI-H661; first compound 0.01 µM): 1.06 | relative viability (NCI-H661; first compound 0.03162 µM): 0.867 | relative viability (NCI-H661; first compound 0.3162 µM): 0.984 | relative viability (ABC-1; first compound 0.03162 µM): 0.707 | relative viability (ABC-1; first compound 0.3162 µM): 0.624 | relative viability (NCI-H322M; first compound 0.03162 µM): 0.879 | relative viability (NCI-H322M; first compound 0.3162 µM): 1.08 | relative viability (NCI-H520; first compound 0.01 µM): 0.236 | relative viability (NCI-H520; first compound 0.03162 µM): 0.22 | relative viability (NCI-H520; first compound 0.3162 µM): 0.212 | relative viability (SK-MES-1; first compound 0.03162 µM): 0.834 | relative viability (SK-MES-1; first compound 0.3162 µM): 0.952 | relative viability (PC-3 [JPC-3]; first compound 0.01 µM): 0.581 | relative viability (PC-3 [JPC-3]; first compound 0.03162 µM): 0.582 | relative viability (PC-3 [JPC-3]; first compound 0.3162 µM): 0.637 | relative viability (NCI-H2405; first compound 0.01 µM): 0.717 | relative viability (NCI-H2405; first compound 0.03162 µM): 0.679 | relative viability (NCI-H2405; first compound 0.3162 µM): 0.661 | relative viability (COR-L23; first compound 0.01 µM): 0.405 | relative viability (COR-L23; first compound 0.03162 µM): 0.814 | relative viability (COR-L23; first compound 0.3162 µM): 0.869 | relative viability (EKVX; first compound 0.01 µM): 0.861 | relative viability (EKVX; first compound 0.03162 µM): 0.84 | relative viability (EKVX; first compound 0.3162 µM): 0.924 | relative viability (PC-14; first compound 0.03162 µM): 0.21 | relative viability (PC-14; first compound 0.3162 µM): 0.21 | relative viability (NCI-H1355; first compound 0.01 µM): 0.671 | relative viability (NCI-H1355; first compound 0.03162 µM): 0.768 | relative viability (NCI-H1355; first compound 0.3162 µM): 0.715 | relative viability (LK-2; first compound 0.01 µM): 0.185 | relative viability (LK-2; first compound 0.03162 µM): 0.189 | relative viability (LK-2; first compound 0.3162 µM): 0.177 | relative viability (HCC-15; first compound 0.01 µM): 0.435 | relative viability (HCC-15; first compound 0.03162 µM): 0.243 | relative viability (HCC-15; first compound 0.3162 µM): 0.338 | relative viability (NCI-H1734; first compound 0.01 µM): 0.184 | relative viability (NCI-H1734; first compound 0.03162 µM): 0.181 | relative viability (NCI-H1734; first compound 0.3162 µM): 0.169 | relative viability (RERF-LC-KJ; first compound 0.01 µM): 1.34 | relative viability (RERF-LC-KJ; first compound 0.03162 µM): 1.43 | relative viability (RERF-LC-KJ; first compound 0.3162 µM): 1.38 | relative viability (SW 1573; first compound 0.01 µM): 0.189 | relative viability (SW 1573; first compound 0.03162 µM): 0.164 | relative viability (SW 1573; first compound 0.3162 µM): 0.227 | relative viability (HCC-827; first compound 0.01 µM): 0.372 | relative viability (HCC-827; first compound 0.03162 µM): 0.74 | relative viability (HCC-827; first compound 0.3162 µM): 0.649
